# Publication PMC11324126, “Novel coumarin-6-sulfonamide-chalcone hybrids as glutathione transferase P1-1 inhibitors” (PLOS ONE, 2024)
# Entries after “also recorded” stand apart in the source; their conditions may differ. Where two headings read alike, the source gives them in different places.
# Columns and labels:
# hGSTP1-1 [1] = biological target: T1, hGSTP1-1 (Homo sapiens, UniProt P09211); experiment: hGSTP1-1 enzyme activity/inhibition assay (CDNB and GSH substrates, 340 nm); type: biochemical; design: key to Enzyme Inhibition (%) (symbol): *: Coumarin derivative 5e did not exhibit significant inhibition; details: for Enzyme Inhibition (%) / IC50 / inhibition at 10 µM: mean ± SE, triplicate; for IC50: concentration-response inhibition, read-out: IC50 towards hGSTP1-1; for inhibition at 10 µM: pH 6.5, 10 μM compound
# T1 construct: made in house; host or cells: E. coli
# T1 sequence (P09211 whole entry): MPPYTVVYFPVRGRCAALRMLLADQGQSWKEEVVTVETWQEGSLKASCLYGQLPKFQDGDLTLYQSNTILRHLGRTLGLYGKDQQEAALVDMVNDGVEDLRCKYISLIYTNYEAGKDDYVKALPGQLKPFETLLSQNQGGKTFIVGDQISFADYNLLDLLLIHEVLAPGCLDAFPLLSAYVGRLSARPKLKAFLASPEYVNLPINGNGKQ
# Protocol: Determination of hGSTP1-1 activity was carried out in potassium phosphate buffer (100 mM, pH 6.5, 1 mL total volume), at 25°C using as substrates CDNB and GSH. The reaction was monitoring at 340 nm for 120 s, as described previously. For inhibition analysis, coumarin derivatives were dissolved in DMSO (100 μΜ) and added to the assay mixture at 10 μΜ final concentration. The mixture was incubated at 25°C for 1 min, prior adding the enzyme sample. The IC50 values were determined from a graph of the remaining GST activity (%) against inhibitor concentration. GraphPad Prism 9.3.1 (GraphPad Prism Software, Inc.) was used for determination of IC50 values. Kinetic inhibition analysis was performed as previously described with minor modifications. Initial velocities using CDNB as a variable substrate (typically 14–1000 μM) were determined in the presence of constant concentration of GSH (2.5 mM) in the absence and presence of the coumarin derivative 5g (0–50 μM). Initial velocities using GSH as a variable substrate (typically 37.5–3750 μΜ) were determined in the presence of 1 mM CDNB in the absence and presence of the coumarin derivative 5g (0–50 μM). Enzyme assays were performed in triplicates and initial velocities were corrected for spontaneous reaction rates.
# [2] = MTT cytotoxicity assay, DU-145; type: cell-based; details: human, DU-145 cells, mean ± SE, triplicate, read-out: CC50 against DU-145
# Protocol: (§1) The MTT colorimetric assay was used to evaluate the in vitro cytotoxicity of 5a, 5f and 5g coumarin derivatives against PC3, DU-145 and MCF-7 cancer cell lines. Cancer cells were inoculated into a 96-well plate (initially at a density of 8 x 10^3 cells/well in 100 μL of culture medium) and were cultivated for 24 h, at 37°C in a CO2 incubator (5%). Different concentrations of 5a, 5f and 5g derivatives (1.5 μΜ to 200 μΜ), were added to cultures and incubated for 48 h. […] The culture medium was then replaced with 100 μL of MTT solution (1 mg/mL) and after 2 h incubation, the solution was aspirated and the produced formazan crystals were dissolved in isopropanol (100 μL). The absorbance was measured at 540 nm. Dose–cell viability graphs were created using GraphPad Prism 9.3.1 and the CC50 values were determined.
# [3] = MTT cytotoxicity assay, PC3; type: cell-based; details: human, PC3 cells, mean ± SE, triplicate, read-out: CC50 against PC3
# Protocol: as §1
# [4] = MTT cytotoxicity assay, MCF-7; type: cell-based; details: human, MCF-7 cells, mean ± SE, triplicate, read-out: CC50 against MCF-7
# Protocol: as §1
# hGSTP1-1 [5] = biological target: T1, hGSTP1-1; design: method as in doi:10.5505/tjb.2012.30301; details: cited from earlier work
# HepG2 cells = system: HepG2 cells; design: method as in PMID 29944015; details: read-out: IC50 towards HepG2 cells; cited from earlier work
# [6] = 10 μM compound, 25°C, pH 6.5, 10 µM
structure (smiles),measurement,setting,value
"O=C(C=Cc1ccccc1)c1ccc(NS(=O)(=O)c2ccc3oc(=O)ccc3c2)cc1 [Compound 5a, N-(4-cinnamoylphenyl)-2-oxo-2H-chromene-6-sulfonamide]",Enzyme Inhibition (%),hGSTP1-1 [1]; [6],84.6 ± 0.1%
same,IC50,hGSTP1-1 [1],16.3 µM
same,inhibition at 10 µM,"hGSTP1-1 [1]; 25°C, pH 6.5",> 85%
same,CC50 at 48 h,[2],71.4 ± 5.4 µM
same,CC50 at 48 h,[3],25.3 ± 2.2 µM
same,CC50 at 48 h,[4],46.8 ± 5.1 µM
"Cc1ccc(C=CC(=O)c2ccc(NS(=O)(=O)c3ccc4oc(=O)ccc4c3)cc2)cc1 [Compound 5b, 2-oxo-N-(4-(3-(p-tolyl)acryloyl)phenyl)-2H-chromene-6-sulfonamide]",inhibition at 10 µM,"hGSTP1-1 [1]; 25°C, pH 6.5",62.8 ± 0.1%
"COc1ccc(C=CC(=O)c2ccc(NS(=O)(=O)c3ccc4oc(=O)ccc4c3)cc2)cc1 [Compound 5c, N-(4-(3-(4-methoxyphenyl)acryloyl)phenyl)-2-oxo-2H-chromene-6-sulfonamide]",inhibition at 10 µM,"hGSTP1-1 [1]; 25°C, pH 6.5",67%
"COc1ccc(C=CC(=O)c2ccc(NS(=O)(=O)c3ccc4oc(=O)ccc4c3)cc2)c(OC)c1 [Compound 5d, N-(4-(3-(2,4-dimethoxyphenyl)acryloyl)phenyl)-2-oxo-2H-chromene-6-sulfonamide]",inhibition at 10 µM,"hGSTP1-1 [1]; 25°C, pH 6.5",59.3 ± 0.1%
"COc1cc(C=CC(=O)c2ccc(NS(=O)(=O)c3ccc4oc(=O)ccc4c3)cc2)cc(OC)c1OC [Compound 5e, 2-oxo-N-(4-(3-(3,4,5-trimethoxyphenyl)acryloyl)phenyl)-2H-chromene-6-sulfonamide]",Enzyme Inhibition (%) (symbol),"hGSTP1-1 [1]; 10 μM compound, 25°C, pH 6.5",*
same,Enzyme Inhibition (%),"hGSTP1-1 [1]; 10 μM compound, 25°C, pH 6.5",no activity
"O=C(C=Cc1ccc(F)cc1)c1ccc(NS(=O)(=O)c2ccc3oc(=O)ccc3c2)cc1 [Compound 5f, N-(4-(3-(4-fluorophenyl)acryloyl)phenyl)-2-oxo-2H-chromene-6-sulfonamide]",Enzyme Inhibition (%),hGSTP1-1 [1]; [6],86.9 ± 0.0%
same,IC50,hGSTP1-1 [1],12.7 ± 0.7 µM
same,inhibition at 10 µM,"hGSTP1-1 [1]; 25°C, pH 6.5",> 85%
same,CC50 at 48 h,[2],47.3 ± 2.7 µM
same,CC50 at 48 h,[3],14.7 ± 0.9 µM
same,CC50 at 48 h,[4],24.7 ± 1.5 µM
"O=C(C=Cc1ccc(Cl)cc1)c1ccc(NS(=O)(=O)c2ccc3oc(=O)ccc3c2)cc1 [Compound 5g, N-(4-(3-(4-chlorophenyl)acryloyl)phenyl)-2-oxo-2H-chromene-6-sulfonamide]",Enzyme Inhibition (%),hGSTP1-1 [1]; [6],87.5 ± 0.0%
same,inhibition constant Ki΄ (hGSTP1-1–CDNB complex),hGSTP1-1 [1]; CDNB as variable substrate,19.25 ± 1.20 μΜ
same,Ki,"hGSTP1-1 [1]; CDNB as variable substrate, read-out: inhibition constant Ki (free hGSTP1-1)",4.69 ± 0.11 µM
same,inhibition constant Ki΄,hGSTP1-1 [1]; GSH as variable substrate,25.39 ± 0.60 μΜ
same,Ki,"hGSTP1-1 [1]; GSH as variable substrate, read-out: inhibition constant Ki",3.82 ± 0.16 µM
same,IC50,hGSTP1-1 [1],12.2 ± 0.5 µM
same,type of inhibition,"hGSTP1-1 [1]; kinetic inhibition analysis, Lineweaver-Burk","mixed-type inhibitor; also recorded: non-competitive, purely mixed-type inhibitor"
same,inhibition at 10 µM,"hGSTP1-1 [1]; 25°C, pH 6.5",> 85%
same,CC50 at 48 h,[2],36.6 ± 2.7 µM
same,CC50 at 48 h,[3],11.9 ± 2.5 µM
same,CC50 at 48 h,[4],17.4 ± 2.9 µM
"O=C(C=Cc1ccc(Br)cc1)c1ccc(NS(=O)(=O)c2ccc3oc(=O)ccc3c2)cc1 [Compound 5h, N-(4-(3-(4-bromophenyl)acryloyl)phenyl)-2-oxo-2H-chromene-6-sulfonamide]",inhibition at 10 µM,"hGSTP1-1 [1]; 25°C, pH 6.5",71.1 ± 0.1%
"O=C(C=Cc1ccc([N+](=O)[O-])cc1)c1ccc(NS(=O)(=O)c2ccc3oc(=O)ccc3c2)cc1 [Compound 5i, N-(4-(3-(4-nitrophenyl)acryloyl)phenyl)-2-oxo-2H-chromene-6-sulfonamide]",inhibition at 10 µM,"hGSTP1-1 [1]; 25°C, pH 6.5",45.4 ± 0.1%
O=[N+]([O-])c1ccc(S(=O)(=O)Nc2ccc3c(c2)CC(Cc2ccc(Cl)cc2)=C3)cc1 [compound III],IC50,hGSTP1-1 [5],10.2 µM
C/C(=N\Nc1nc(-c2ccccc2)cs1)c1ccc(NS(=O)(=O)c2ccc3oc(=O)ccc3c2)cc1 [compound II],IC50,HepG2 cells,3.48 ± 0.28 µM
